Laboratory results as given in patent US20230096517A1, “GLUTARIMIDE SKELETON-BASED COMPOUNDS AND APPLICATION THEREOF” (SHANGHAITECH UNIVERSITY, priority 2020, published 2023).
Read-outs that look alike come from different tables or passages of the source.

System: MM.1S cells
Test: Proliferation inhibition (IC50) in multiple myeloma cells, cell viability with WST/CCK-8 reagent;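 further: MM.1S B-lymphoblast cells at 15,000 per well in 100 µL serum-containing RPMI1640, experiment run more than three times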
[1] = Homo sapiens, MM1.S, 72 h, read-out: IC50 (half inhibitory concentration)
[2] = Homo sapiens, MM1.S, 72 h, read-out: IC50 (half inhibitory concentration), MM.1S multiple myeloma cells, WST reagent, 72 h treatment

Description: Multiple myeloma cell line: MM.1S (B lymphoblast), purchased from ATCC (American Type Culture Collection). Culture medium was RPMI1640 supplemented with 10% FBS and 1% Penicillin-Streptomycin. The cells used were identified as correct cells by STR cells and negative for mycoplasma by routine inspections.
IC50 values of the compounds of the present disclosure were measured using Cell Titer Blue, Cell Titer GLO, or WST reagent from Promega Company. Assay details are as follows: Cells were seeded in 100 μL RPMI1640 complete medium containing serum at a density of 15,000 cells/well.
The experiment was repeated more than three times.

Compound | IC50 [1] | also measured
O=C1CCC(N2Cc3cc(CCCCCCCCNC45CC6CC(CC(C6)C4)C5)ccc3C2=O)C(=O)N1 (stereo not drawn) [SIAIS271187, 3-(5-(8-((adamantan-1-yl)amino)octyl)-1-oxoisoindolin-2-yl)piperidine-2,6-dione] | 17 nM | –
O=C1CCC(N2Cc3c(NCc4ccc(CCNC56CC7CC(CC5C7)C6)cc4)cccc3C2=O)C(=O)N1 (stereo not drawn) [SIAIS1242061, 3-(4-((4-(2-((hexahydro-2,5-methanopentalen-3a(1H)-yl)amino)ethyl)benzyl)amino)-1-oxoisoindolin-2-yl)piperidine-2,6-dione] | 0.107 nM | –
O=C1CCC(N2C(=O)c3ccc(NCCCCCCNC45CC6CC(CC(C6)C4)C5)cc3C2=O)C(=O)N1 (stereo not drawn) [SIAIS1242067, 5-((6-((adamantan-1-yl)amino)hexyl)amino)-2-(2,6-dioxopiperidin-3-yl)isoindoline-1,3-dione] | 17.7 nM | –
O=C1CCC(N2Cc3c(CCc4ccc(CNC56CC7CC(CC(C7)C5)C6)cc4)cccc3C2=O)C(=O)N1 (stereo not drawn) [SIAIS1222051, 3-(4-(4-(((adamantan-1-yl)amino)methyl)phenethyl)-1-oxoisoindolin-2-yl)piperidine-2,6-dione] | 4.1 nM | –
O=C1CCC(N2C(=O)c3cccc(NCCCCCCNCC45CC6CC(CC(C6)C4)C5)c3C2=O)C(=O)N1 (stereo not drawn) [SIAIS1222037, 4-((6-(((adamantan-1-yl)methyl)amino)hexyl)amino)-2-(2,6-dioxopiperidin-3-yl)isoindoline-1,3-dione] | 0.13 nM | –
O=C1CCC(N2Cc3c(OCCCCCCCNC45CC6CC(CC(C6)C4)C5)cccc3C2=O)C(=O)N1 (stereo not drawn) [SIAIS1221111, 3-(4-((7-((adamantan-1-yl)amino)heptyl)oxy)-1-oxoisoindolin-2-yl)piperidine-2,6-dione] | – | IC50 [2]: ~0.09 nM; IC50 (read-out: IC50 (half inhibitory concentration), MM.1S multiple myeloma cells, WST reagent, 72 h treatment): 0.089 nM
CN(CCCCCCCOc1cccc2c1CN(C1CCC(=O)NC1=O)C2=O)C12CC3CC(CC(C3)C1)C2 (stereo not drawn) [SIAIS1222181, 3-(4-((7-((adamantan-1-yl)(methyl)amino)heptyl)oxy)-1-oxoisoindolin-2-yl)piperidine-2,6-dione] | 0.052 nM | –
O=C1CCC(N2C(=O)c3cccc(OCc4ccc(CCNC56CC7CC(CC(C7)C5)C6)cc4)c3C2=O)C(=O)N1 (stereo not drawn) [SIAIS1241167, 4-((4-(2-((adamantan-1-yl)amino)ethyl)benzyl)oxy)-2-(2,6-dioxopiperidin-3-yl)isoindoline-1,3-dione] | 1.95 nM | –
O=C1CCC(N2Cc3c(NCCCCCCCNC45CC6CC(CC4C6)C5)cccc3C2=O)C(=O)N1 (stereo not drawn) [SIAIS1242071, 3-(4-((7-((hexahydro-2,5-methanopentalen-3a(1H)-yl)amino)heptyl)amino)-1-oxoisoindolin-2-yl)piperidine-2,6-dione] | 2.46 nM | –
O=C1CCC(N2Cc3c(C#CCCCCCCNC45CC6CC(CC(C6)C4)C5)cccc3C2=O)C(=O)N1 (stereo not drawn) [SIAIS1221095, 3-(4-(8-((adamantan-1-yl)amino)oct-1-yn-1-yl)-1-oxoisoindolin-2-yl)piperidine-2,6-dione] | 2.21 nM | –
O=C1CCC(N2Cc3c(C#CCCCCCCNC45CC6CC(CC4C6)C5)cccc3C2=O)C(=O)N1 (stereo not drawn) [SIAIS1242057, 3-(4-(8-((hexahydro-2,5-methanopentalen-3a(1H)-yl)amino)oct-1-yn-1-yl)-1-oxoisoindolin-2-yl)piperidine-2,6-dione] | 0.267 nM | –
O=C1CCC(N2C(=O)c3cccc(OCCCCCCCNC45CC6CC(CC(C6)C4)C5)c3C2=O)C(=O)N1 (stereo not drawn) [SIAIS1221077, 4-((7-((adamantan-1-yl)amino)heptyl)oxy)-2-(2,6-dioxopiperidin-3-yl)isoindoline-1,3-dione] | 5.53 nM | –
O=C1CCC(N2C(=O)c3ccc(NCCCCCCCNC45CC6CC(CC(C6)C4)C5)cc3C2=O)C(=O)N1 (stereo not drawn) [SIAIS1221055, 5-((7-((adamantan-1-yl)amino)heptyl)amino)-2-(2,6-dioxopiperidin-3-yl)isoindoline-1,3-dione] | 1.43 nM | –
O=C1CCC(N2C(=O)c3ccc(NCCCCCNC45CC6CC(CC(C6)C4)C5)cc3C2=O)C(=O)N1 (stereo not drawn) [SIAIS1242069, 5-((5-((adamantan-1-yl)amino)pentyl)amino)-2-(2,6-dioxopiperidin-3-yl)isoindoline-1,3-dione] | 2.27 nM | –
O=C1CCC(N2C(=O)c3cccc(NCCCCCCCNC45CC6CC(CC(C6)C4)C5)c3C2=O)C(=O)N1 (stereo not drawn) [SIAIS1221053, 4-((7-((adamantan-1-yl)amino)heptyl)amino)-2-(2,6-dioxopiperidin-3-yl)isoindoline-1,3-dione] | – | IC50 [2]: 0.16 ± 0.03 nM
O=C1CCC(N2C(=O)c3cccc(NCCCCCNC45CC6CC(CC(C6)C4)C5)c3C2=O)C(=O)N1 (stereo not drawn) [SIAIS1222095, 4-((5-((adamantan-1-yl)amino)pentyl)amino)-2-(2,6-dioxopiperidin-3-yl)isoindoline-1,3-dione] | 1.1 nM | –
O=C1CCC(N2C(=O)c3cccc(NCCCCCCCN4CCCCC4)c3C2=O)C(=O)N1 (stereo not drawn) [SIAIS1221047, 2-(2,6-dioxopiperidin-3-yl)-4-((7-(piperidin-1-yl)heptyl)amino)isoindoline-1,3-dione, reference compound] | 0.78 nM | –
O=C1CCC(N2Cc3c(NCCCCCCNCC45CC6CC(CC(C6)C4)C5)cccc3C2=O)C(=O)N1 (stereo not drawn) [SIAIS1222073, 3-(4-((6-(((adamantan-1-yl)methyl)amino)hexyl)amino)-1-oxoisoindolin-2-yl)piperidine-2,6-dione] | 1.26 nM | –

Compound | IC50 [1] | also measured
CC(NCCCCCCNc1cccc2c1C(=O)N(C1CCC(=O)NC1=O)C2=O)C12CC3CC(CC(C3)C1)C2 (stereo not drawn) [SIAIS1222191, 4-((6-((1-(adamantan-1-yl)ethyl)amino)hexyl)amino)-2-(2,6-dioxopiperidin-3-yl)isoindoline-1,3-dione] | 2.22 nM | –
O=C1CCC(N2Cc3c(CCCCCCCCNC4CCCCC4)cccc3C2=O)C(=O)N1 (stereo not drawn) [SIAIS1221193, 3-(4-(8-(cyclohexylamino)octyl)-1-oxoisoindolin-2-yl)piperidine-2,6-dione] | 0.854 nM | –
O=C1CCC(N2Cc3c(NCCCCCCCNC45CC6CC(CC(C6)C4)C5)cccc3C2=O)C(=O)N1 (stereo not drawn) [SIAIS1221091, 3-(4-((7-((adamantan-1-yl)amino)heptyl)amino)-1-oxoisoindolin-2-yl)piperidine-2,6-dione] | 1.51 nM | –
CN(CCCCCCCCc1cccc2c1CN(C1CCC(=O)NC1=O)C2=O)C12CC3CC(CC(C3)C1)C2 (stereo not drawn) [SIAIS1222031, 3-(4-(8-((adamantan-1-yl)(methyl)amino)octyl)-1-oxoisoindolin-2-yl)piperidine-2,6-dione] | 0.27 nM | –
O=C1CCC(N2Cc3c(OCc4ccc(CNC56CC7CC(CC(C7)C5)C6)cc4)cccc3C2=O)C(=O)N1 (stereo not drawn) [SIAIS1228157, 3-(4-((4-(((adamantan-1-yl)amino)methyl)benzyl)oxy)-1-oxoisoindolin-2-yl)piperidine-2,6-dione] | 0.28 nM | –
O=C1CCC(N2Cc3c(OCc4ccc(CCNC56CC7CC(CC(C7)C5)C6)cc4)cccc3C2=O)C(=O)N1 (stereo not drawn) [SIAIS1241169, 3-(4-((4-(2-((adamantan-1-yl)amino)ethyl)benzyl)oxy)-1-oxoisoindolin-2-yl)piperidine-2,6-dione] | 0.123 nM | –
O=C1CCC(N2Cc3c(NCc4ccc(CCNC56CC7CC(CC(C7)C5)C6)cc4)cccc3C2=O)C(=O)N1 (stereo not drawn) [SIAIS1227027, 3-(4-((4-(2-((adamantan-1-yl)amino)ethyl)benzyl)amino)-1-oxoisoindolin-2-yl)piperidine-2,6-dione] | 0.32 ± 0.09 nM | –
O=C1CCC(N2Cc3c(OCCCCCCNCC45CC6CC(CC(C6)C4)C5)cccc3C2=O)C(=O)N1 (stereo not drawn) [SIAIS1222165, 3-(4-((6-(((adamantan-1-yl)methyl)amino)hexyl)oxy)-1-oxoisoindolin-2-yl)piperidine-2,6-dione] | 0.204 nM | –
Nc1cccc2c1C(=O)N(C1CCC(=O)NC1=O)C2=O (stereo not drawn) [pomalidomide, reference compound] | 9.4 ± 1.3 nM | –
O=C1CCC(N2Cc3c(OCCCCCCCNC45CC6CC(CC4C6)C5)cccc3C2=O)C(=O)N1 (stereo not drawn) [SIAIS1242043, 3-(4-((7-((hexahydro-2,5-methanopentalen-3a(1H)-yl)amino)heptyl)oxy)-1-oxoisoindolin-2-yl)piperidine-2,6-dione] | 0.069 nM | –
CC1(C)[C@@H]2CC[C@@]1(C)[C@@H](NCc1ccc(CNc3cccc4c3C(=O)N(C3CCC(=O)NC3=O)C4=O)cc1)C2 (stereo partly drawn) [SIAIS1221173, 2-(2,6-dioxopiperidin-3-yl)-4-((4-((((1R,2S,4R)-1,7,7-trimethylbicyclo[2.2.1]heptan-2-yl)amino)methyl)benzyl)amino)isoindoline-1,3-dione] | 1.09 nM | –
O=C1CCC(N2C(=O)c3cccc(NCCCCCCCNC45CC6CC(CC4C6)C5)c3C2=O)C(=O)N1 (stereo not drawn) [SIAIS1242041, 2-(2,6-dioxopiperidin-3-yl)-4-((7-((hexahydro-2,5-methanopentalen-3a(1H)-yl)amino)heptyl)amino)isoindoline-1,3-dione] | 0.076 nM | –
O=C1CCC(N2Cc3c(CCCCCCCCN4CCCCC4)cccc3C2=O)C(=O)N1 (stereo not drawn) [SIAIS1221107, 3-(1-oxo-4-(8-(piperidin-1-yl)octyl)isoindolin-2-yl)piperidine-2,6-dione, reference compound] | 3.93 nM | –
O=C1CCC(N2Cc3c(OCCCCCCCNC4CC5(CCC5)C4)cccc3C2=O)C(=O)N1 (stereo not drawn) [SIAIS1224013, 3-(1-oxo-4-((7-(spiro[3.3]heptan-2-ylamino)heptyl)oxy)isoindolin-2-yl)piperidine-2,6-dione] | 0.534 nM | –
O=C1CCC(N2Cc3c(NCc4ccc(CNC56CC7CC(CC(C7)C5)C6)cc4)cccc3C2=O)C(=O)N1 (stereo not drawn) [SIAIS1222025, 3-(4-((4-(((adamantan-1-yl)amino)methyl)benzyl)amino)-1-oxoisoindolin-2-yl)piperidine-2,6-dione] | 3.24 nM | –
O=C1CCC(N2Cc3c(C#CCCCCCCCNC45CC6CC(CC(C6)C4)C5)cccc3C2=O)C(=O)N1 (stereo not drawn) [SIAIS1222047, 3-(4-(9-((adamantan-1-yl)amino)non-1-yn-1-yl)-1-oxoisoindolin-2-yl)piperidine-2,6-dione] | 13 nM | –
O=C1CCC(N2Cc3c(CCc4ccc(CNCC56CC7CC(CC(C7)C5)C6)cc4)cccc3C2=O)C(=O)N1 (stereo not drawn) [SIAIS1222053, 3-(4-(4-((((adamantan-1-yl)methyl)amino)methyl)phenethyl)-1-oxoisoindolin-2-yl)piperidine-2,6-dione] | 1.61 nM | –
